Laboratory results as given in patent US8785468B2, “Phenylalanine amide derivatives useful for treating insulin-related diseases and conditions” (Amgen Inc., priority 2009, dated 2014).
Where a name gives a salt, the structure may show the parent alone.

Target: T1, human receptor found in pancreatic islet cells (Homo sapiens, UniProt Q7Z601)
T1 sequence (Q7Z601 1-462): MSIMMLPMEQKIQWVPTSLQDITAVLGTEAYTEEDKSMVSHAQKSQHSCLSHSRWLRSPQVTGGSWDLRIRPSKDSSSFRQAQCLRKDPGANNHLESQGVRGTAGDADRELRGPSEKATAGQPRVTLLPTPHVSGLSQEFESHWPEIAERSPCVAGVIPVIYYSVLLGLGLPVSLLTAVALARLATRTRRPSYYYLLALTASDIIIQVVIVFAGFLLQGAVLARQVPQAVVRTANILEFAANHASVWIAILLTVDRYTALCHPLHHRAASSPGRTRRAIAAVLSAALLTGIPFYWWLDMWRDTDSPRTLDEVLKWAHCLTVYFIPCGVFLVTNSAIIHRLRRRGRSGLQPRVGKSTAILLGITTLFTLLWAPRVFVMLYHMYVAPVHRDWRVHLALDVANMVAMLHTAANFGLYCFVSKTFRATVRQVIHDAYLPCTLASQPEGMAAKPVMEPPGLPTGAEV
Assay: Activation of intracellular IP3 signaling in transfected cells (Activation Assay)
Type: cell-based
Details: calculated from IP3 concentration measurements in cells transfected with the human receptor
Protocol: Table 12 provides exemplary compounds that were prepared and assessed, following protocols known to those of skilled in the art, for activation of intracellular inositol trisphosphate (IP3) signaling pathways that lead to elevation of intracellular calcium concentration. EC50 values provided in Table 12 were calculated from IP3 concentration measurements in cells transfected with a human receptor found in pancreatic islet cells, inter alia.

Structure (SMILES)	EC50
N[C@@H](Cc1ccccc1)C(=O)Nc1cc(C(=O)O)cc(-c2ccncc2)c1 [Example 45.1, (S)-3-(2-Amino-3-phenylpropanamido)-5-(pyridin-4-yl)benzoic acid]	1000 to 10000 nM
COc1ncc(-c2ccnc(C)c2)cc1NC(=O)[C@H](Cc1ccccc1)NCc1ccccn1 [Example 41.3, (2S)—N-(2-Methoxy-5-(2-methylpyridin-4-yl)pyridin-3-yl)-3-phenyl-2-(pyridin-2-ylmethylamino)propanamide]	100 to 1000 nM
O=C(NCCN1CCNC1=O)c1cc(-c2ccncc2)cc2c1CCN2C(=O)[C@H](Cc1ccccc1)NCc1cscn1 [Example 81, (S)—N-(2-(2-Oxoimidazolidin-1-yl)ethyl)-1-(3-phenyl-2-(thiazol-4-ylmethylamino)propanoyl)-6-(pyridin-4-yl)indoline-4-carboxamide]	100 to 1000 nM
N#Cc1cc(-c2ccncc2)cc2c1CCN2C(=O)[C@H](Cc1ccccc1)NCc1cscn1 [Example 53, (S)-1-(3-Phenyl-2-(thiazol-4-ylmethylamino)propanoyl)-6-(pyridin-4-yl)indoline-4-carbonitrile]	100 to 1000 nM
O=C(Nc1cccc(-c2ccncc2)c1)[C@H](Cc1ccccc1)NCc1cncs1 [Example 34.17, (S)-3-Phenyl-N-(3-(pyridin-4-yl)phenyl)-2-(thiazol-5-ylmethylamino)propanamide]	100 to 1000 nM
O=C(Nc1nnc(-c2ccncc2)s1)[C@H](Cc1ccccc1)NCc1cscn1 [Example 1.5, (S)-3-phenyl-N-(5-(pyridin-4-yl)-1,3,4-thiadiazol-2-yl)-2-(thiazol-4-ylmethylamino)propanamide]	50 to 100 nM
CC(C)(C)OC(=O)c1cc(NC(=O)[C@H](Cc2ccccc2)NC2(c3ccccn3)CC2)cc(-c2ccncc2)c1 [Example 73, (S)— tert-Butyl 3-(3-phenyl-2-(1-(pyridin-2-yl)cyclopropylamino)propanamido)-5-(pyridin-4-yl)benzoate]	100 to 1000 nM
Cn1cc(-c2cccc(NC(=O)[C@H](Cc3ccccc3)NCc3cscn3)c2)cn1 [Example 27, (2S)—N-(3-(1-Methyl-1H-pyrazol-4-yl)phenyl)-3-phenyl-2-(thiazol-4-ylmethylamino)propanamide]	100 to 1000 nM
COc1ncc(-c2ccncc2)cc1NC(=O)[C@H](Cc1ccccc1)NC1(c2ccccn2)CC1 [Example 11.1, (S)—N-(2-methoxy-5-(pyridin-4-yl)pyridin-3-yl)-3-phenyl-2-(1-(pyridin-2-yl)cyclopropylamino)propanamide]	< 50 nM
O=C(NCC1CC1)c1cc(NC(=O)[C@H](Cc2ccccc2)NCc2cscn2)cc(-c2ccncc2)c1 [Example 70, (S)—N-(Cyclopropylmethyl)-3-(3-phenyl-2-(thiazol-4-ylmethylamino)propanamido)-5-(pyridin-4-yl)benzamide]	50 to 100 nM
O=C(Nc1cc(-c2ccncc2)cc(C(F)(F)C(=O)O)c1)[C@H](Cc1ccccc1)NCc1cscn1 [Example 52, (S)-2,2-difluoro-2-(3-(3-phenyl-2-(thiazol-4-ylmethylamino)propanamido)-5-(pyridin-4-yl)phenyl)acetic acid]	100 to 1000 nM
COc1ncc(-c2ccn(C)n2)cc1NC(=O)[C@H](Cc1ccccc1)NC1(c2ccccn2)CC1 [Example 19.1]	100 to 1000 nM

Further lines, results first:

EC50	Structure (SMILES)
< 50 nM	CNc1cc(-c2cc(NC(=O)[C@H](Cc3ccccc3)NCc3ccc(F)cn3)n(C)n2)ccn1 [Example 23.1, (2S)-2-((5-Fluoropyridin-2-yl)methylamino)-N-(1-methyl-3-(2-(methylamino)pyridin-4-yl)-1H-pyrazol-5-yl)-3-phenylpropanamide]
< 50 nM	Cc1cc(-c2cc(NC(=O)[C@H](Cc3ccc(F)cc3)NCc3cscn3)n(C)n2)ccn1 [Example 16.1, (2S)-3-(4-Fluorophenyl)-N-(1-methyl-3-(2-methylpyridin-4-yl)-1H-pyrazol-5-yl)-2-(thiazol-4-ylmethylamino)propanamide]
50 to 100 nM	CNc1cc(-c2cc(NC(=O)[C@H](Cc3ccc(F)cc3)NCc3cscn3)n(CCO)n2)ccn1 [Example 30, (2S)-3-(4-Fluorophenyl)-N-(1-(2-hydroxyethyl)-3-(2-(methylamino)pyridin-4-yl)-1H-pyrazol-5-yl)-2-(thiazol-4-ylmethylamino)propanamide]
< 50 nM	CNc1cc(-c2cc(NC(=O)[C@H](Cc3ccc(F)cc3)NCc3cc[nH]n3)n(C)n2)ccn1 [Example 23.2, (2S)-2-((1H-Pyrazol-3-yl)methylamino)-3-(4-fluorophenyl)-N-(1-methyl-3-(2-(methylamino)pyridin-4-yl)-1H-pyrazol-5-yl)propanamide]
< 50 nM	Cc1cc(-c2cc(NC(=O)[C@H](Cc3ccc(F)cc3)NCC(=O)O)[nH]n2)ccn1 [Example 21.2, 2-((S)-3-(4-Fluorophenyl)-1-(3-(2-methylpyridin-4-yl)-1H-pyrazol-5-ylamino)-1-oxopropan-2-ylamino)acetic acid dihydrochloride]
< 50 nM	CNc1cc(-c2cc(NC(=O)[C@H](Cc3ccc(F)cc3)NCc3c[nH]nn3)[nH]n2)ccn1 [Example 18.2, (2S)-2-((1H-1,2,3-triazol-4-yl)methylamino)-3-(4-fluorophenyl)-N-(3-(2-(methylamino)pyridin-4-yl)-1H-pyrazol-5-yl)propanamide]
< 50 nM	CCn1nc(-c2ccnc(NC)c2)cc1NC(=O)[C@H](Cc1ccc(F)cc1)NCC(=O)O [Example 31.4, 2-((S)-1-(1-Ethyl-3-(2-(methylamino)pyridin-4-yl)-1H-pyrazol-5-ylamino)-3-(4-fluorophenyl)-1-oxopropan-2-ylamino)acetic acid]
100 to 1000 nM	O=C(Nc1cccc(-c2ccc(F)cc2)c1)[C@H](Cc1ccccc1)NCc1cscn1 [Example 44]
100 to 1000 nM	CCOCCN[C@@H](Cc1ccc(F)cc1)C(=O)Nc1cc(-c2ccnc(NC)c2)nn1C [Example 23.3, (2S)-2-(2-Ethoxyethylamino)-3-(4-fluorophenyl)-N-(1-methyl-3-(2-(methylamino)pyridin-4-yl)-1H-pyrazol-5-yl)propanamide]
100 to 1000 nM	COc1ncc(-c2ccnc(C)c2)cc1NC(=O)[C@H](Cc1ccccc1)NCc1cn(C)cn1 [Example 41.4, (2S)—N-(2-Methoxy-5-(2-methylpyridin-4-yl)pyridin-3-yl)-2-((1-methyl-1H-imidazol-4-yl)methylamino)-3-phenylpropanamide]
< 50 nM	CCCn1nc(-c2ccnc(NC)c2)cc1NC(=O)[C@H](Cc1ccc(F)cc1)NCc1cscn1 [Example 42, (2S)-3-(4-fluorophenyl)-N-(3-(2-(methylamino)pyridin-4-yl)-1-propyl-1H-pyrazol-5-yl)-2-(thiazol-4-ylmethylamino)propanamide]
50 to 100 nM	CNc1cc(-c2cc(NC(=O)[C@H](Cc3ccc(F)cc3)NCc3ccn(C)n3)n(C)n2)ccn1 [Example 23.4, (2S)-3-(4-Fluorophenyl)-2-((1-methyl-1H-pyrazol-3-yl)methylamino)-N-(1-methyl-3-(2-(methylamino)pyridin-4-yl)-1H-pyrazol-5-yl)propanamide]
100 to 1000 nM	CC(C)(C(=O)O)c1cc(NC(=O)[C@H](Cc2ccc(Cl)cc2)NCc2cscn2)cc(-c2ccncc2)c1 [Example 63.1, (S)-2-(3-(3-(4-Chlorophenyl)-2-(thiazol-4-ylmethylamino)propanamido)-5-(pyridin-4-yl)phenyl)-2-methylpropanoic acid]
